# Where two headings read alike, the source gives them in different places.
# What was measured:
# [1] = test system: cultured cells of Taxus baccata LINN; test: Growth rate and taxane yield, 21-day shake culture of Taxus baccata cells with heavy metal compound, amine, antiethylene agent or Ethrel added; assay type: cell-based
# [2] = test system: cultured cells of Taxus baccata LINN; settings: 2 mM in medium
# Method: The procedure of Example 78 was carried out except that the nutrition source was not added midway.
# [3] = test system: cultured cells of Taxus baccata LINN; settings: 3 mM in fresh medium, continuous culture
# Method: The amount of the taxol contained in the cells and the medium were measured in the same manner as that used in Example 1.
# [4] = 2×10^−4 M added 5 times at 4 days' intervals from day 0, total 10^−3 M
# [5] = 10^−1 M added at start, 21 days
# [6] = 10^−2 M added at start, 21 days
# [7] = 10^−3 M added at start, 21 days
# [8] = 10^−3 M added on 7th day, 14 more days
# [9] = 10^−3 M added on 14th day, 7 more days
# [10] = 10^−3 M added on 18th day, 3 more days
# [11] = 10^−3 M at start + methyl jasmonate 10^−4 M on 14th day
# [12] = 10^−3 M at start + methyl jasmonate 10^−4 M on 14th day, oxygen 10% in the gas phase
# [13] = 10^−3 M at start, oxygen 10% in the gas phase
# [14] = 10^−4 M added at start, 21 days
# [15] = 10^−5 M added at start, 21 days
# [16] = 10^−6 M added at start, 21 days
# [17] = 10^−7 M added at start, 21 days
# [18] = 10^−8 M added at start, 21 days
# [19] = 10^−9 M added at start, 21 days
# [20] = nutrition source added continuously day 2-14, 21 days
# [21] = nutrition source not added midway, 21 days
structure (smiles),measurement,setting,value
"O=S([O-])([O-])=S.[Ag+].[Ag+] [silver thiosulfate, [Ag(S2O3)2]^3−]",growth rate,"[1]; 1 M added at start, 21 days",1.2 times
same,total yield of taxane,"[1]; 1 M added at start, 21 days",0.64 mg/L
same,yield of baccatin III,"[1]; 1 M added at start, 21 days",0.08 mg/L
same,yield of cephalomannine,"[1]; 1 M added at start, 21 days",0.36 mg/L
same,yield of taxol,"[1]; 1 M added at start, 21 days",0.20 mg/L
same,growth rate,[1]; [4],2.4 times
same,total yield of taxane,[1]; [4],32.36 mg/L
same,yield of baccatin III,[1]; [4],4.15 mg/L
same,yield of cephalomannine,[1]; [4],7.27 mg/L
same,yield of taxol,[1]; [4],20.94 mg/L
same,growth rate,[1]; [5],1.9 times
same,total yield of taxane,[1]; [5],3.78 mg/L
same,yield of baccatin III,[1]; [5],0.26 mg/L
same,yield of cephalomannine,[1]; [5],2.15 mg/L
same,yield of taxol,[1]; [5],1.37 mg/L
same,growth rate,[1]; [6],2.3 times
same,total yield of taxane,[1]; [6],12.02 mg/L
same,yield of baccatin III,[1]; [6],0.72 mg/L
same,yield of cephalomannine,[1]; [6],5.50 mg/L
same,yield of taxol,[1]; [6],5.80 mg/L
same,growth rate,[1]; [7],2.7 times
same,total yield of taxane,[1]; [7],58.99 mg/L
same,yield of baccatin III,[1]; [7],27.90 mg/L
same,yield of cephalomannine,[1]; [7],5.96 mg/L
same,yield of taxol,[1]; [7],25.13 mg/L
same,growth rate,[1]; [8],2.2 times
same,total yield of taxane,[1]; [8],27.21 mg/L
same,yield of baccatin III,[1]; [8],11.71 mg/L
same,yield of cephalomannine,[1]; [8],4.86 mg/L
same,yield of taxol,[1]; [8],10.64 mg/L
same,growth rate,[1]; [9],2.5 times
same,total yield of taxane,[1]; [9],10.59 mg/L
same,yield of baccatin III,[1]; [9],2.29 mg/L
same,yield of cephalomannine,[1]; [9],3.83 mg/L
same,yield of taxol,[1]; [9],4.47 mg/L
same,growth rate,[1]; [10],2.9 times
same,total yield of taxane,[1]; [10],3.27 mg/L
same,yield of baccatin III,[1]; [10],0.28 mg/L
same,yield of cephalomannine,[1]; [10],1.44 mg/L
same,yield of taxol,[1]; [10],1.55 mg/L
same,growth rate,[1]; [11],2.7 times
same,total yield of taxane,[1]; [11],71.32 mg/L
same,yield of baccatin III,[1]; [11],25.14 mg/L
same,yield of cephalomannine,[1]; [11],12.57 mg/L
same,yield of taxol,[1]; [11],33.61 mg/L
same,growth rate,[1]; [12],2.7 times
same,total yield of taxane,[1]; [12],74.07 mg/L
same,yield of baccatin III,[1]; [12],27.00 mg/L
same,yield of cephalomannine,[1]; [12],12.34 mg/L
same,yield of taxol,[1]; [12],34.73 mg/L
same,growth rate,[1]; [13],2.7 times
same,total yield of taxane,[1]; [13],59.34 mg/L
same,yield of baccatin III,[1]; [13],22.81 mg/L
same,yield of cephalomannine,[1]; [13],9.08 mg/L
same,yield of taxol,[1]; [13],27.45 mg/L
same,growth rate,[1]; [14],2.7 times
same,total yield of taxane,[1]; [14],27.26 mg/L
same,yield of baccatin III,[1]; [14],7.62 mg/L
same,yield of cephalomannine,[1]; [14],5.11 mg/L
same,yield of taxol,[1]; [14],14.53 mg/L
same,growth rate,[1]; [15],2.7 times
same,total yield of taxane,[1]; [15],13.18 mg/L
same,yield of baccatin III,[1]; [15],1.13 mg/L
same,yield of cephalomannine,[1]; [15],4.10 mg/L
same,yield of taxol,[1]; [15],7.95 mg/L
same,growth rate,[1]; [16],2.6 times
same,total yield of taxane,[1]; [16],5.72 mg/L
same,yield of baccatin III,[1]; [16],1.06 mg/L
same,yield of cephalomannine,[1]; [16],2.86 mg/L
same,yield of taxol,[1]; [16],1.80 mg/L
same,growth rate,[1]; [17],2.7 times
same,total yield of taxane,[1]; [17],4.38 mg/L
same,yield of baccatin III,[1]; [17],0.34 mg/L
same,yield of cephalomannine,[1]; [17],2.47 mg/L
same,yield of taxol,[1]; [17],1.57 mg/L
same,growth rate,[1]; [18],2.8 times
same,total yield of taxane,[1]; [18],2.02 mg/L
same,yield of baccatin III,[1]; [18],0.29 mg/L
same,yield of cephalomannine,[1]; [18],0.97 mg/L
same,yield of taxol,[1]; [18],0.76 mg/L
same,growth rate,[1]; [19],2.7 times
same,total yield of taxane,[1]; [19],1.09 mg/L
same,yield of baccatin III,[1]; [19],0.20 mg/L
same,yield of cephalomannine,[1]; [19],0.56 mg/L
same,yield of taxol,[1]; [19],0.33 mg/L
same,yield of cells,[2]; [20],38 g dried weight/l
same,yield of taxol from cells,[2]; [20],31 mg/L
same,yield of taxol from medium,[2]; [20],89 mg/L
same,yield of taxol total,[2]; [20],125 mg/L
same,yield of cells,[2]; [21],22 g dried weight/l
same,yield of taxol from cells,[2]; [21],33 mg/L
same,yield of taxol from medium,[2]; [21],27 mg/L
same,yield of taxol total,[2]; [21],60 mg/L
same,productivity of taxol,[3]; stationary state,8.8 mg/L/day
same,taxol produced,[3]; stationary state of 60 days,525 mg
